Measurements as given in patent US7163941B2, “Pyrido[2,3-d]pyrimidin-7-carboxylic acid derivatives, their manufacture and use as pharmaceutical agents” (Hoffmann-La Roche Inc., priority 2003, dated 2007).

Columns and labels:
[1] = target: T1, Src (p60^c-src, partially purified) (Homo sapiens, UniProt P12931); assay: SRC-Inhibitor-Assay (time-resolved fluorescence), Src enzyme; type: biochemical; details: ATP 5 μM, peptide 10 μM, enzyme 2.5 U/ml, pre-incubation 15 min at 15° C.
T1 construct: purchased Upstate (UBI)
Method: (§1) The activity of the compounds according to this invention as inhibitors for the src-family tyrosine kinases was shown by using the following assay.
(§2) SRC-Inhibitor-Assay Parameters:
(§3) • Reaction mixture: • ATP 5 μM • Peptide (R+Ja133-Ro): 10 μM • Ja133-Ro 196 nM • Ro 9.8 μM • PT66 230 ng/ml • Assay buffer: 4 mM MgCl2 • 2 mM TCEP • 50 mM HEPES • 0,1% Tween 20 • pH 7.3 • Enzyme: 2.5 U/ml • Inhibitor: max. 25 μM • min. 0.42 nM Material: • Eu-labelled phosphotyrosine antibody: -for Lck Cisbio Mab PT66-K, • for Src EG&G Wallac PT66 Eu-W1024 (all commercially available). • Peptides: Ro: NH2-A-E-E-E-I-Y-G-E-F-E-A-K-K-K-K-CONH2 (SEQ ID NO: 1), and • Ja133-Ro: Ja133-G-Aminocaprylic acid-A-E-E-E-I-Y-G-E-F-E-A-K-K-K-K-CONH2 (SEQ ID NO: 2), wherein Ja133 is LightCycler-Red 640-N-hydroxy succinimide ester; • whereby both peptides were synthesized by an optimized solid phase peptide synthesis protocol (Merrifield, Fed. Proc. Fed. Amer. Soc. Exp. Biol. 21 (1962) 412) on a Zinsser SMP350 peptide synthesizer. Shortly, the peptide was assembled on 160 mg (22.8 μmol scale) of a Rink-Linker modified polystyrene solid phase by repeatedly conjugating an twenty fold excess of aminoacids each protected by temporary piperidine labile Fmoc- and permanent acid labile tert-Bu-, BOC- and Otert-Bu-groups depending on the side chain function. The substrate sequence AEEEIYGEFEAKKKK (SEQ ID NO: 1) was N-terminal additionally mounted with the spacer amino acids Aminocaprylic acid and Glycin. After cleavage of the N-terminal temporary protecting group the still attached and protected peptide was labeled with a 1.5 fold amount of LightCycler-Red 640-N-hydroxy succinimide ester (purchased by Roche Diagnostics GmbH) and triethylamine. After 3 hrs. the resin was washed with Dimethylformamide and Isopropanol until the eluates of the blue resin got colo-rless. […] The substrate was finally isolated by a preparative reverse phase HPLC purification. The purification yielded 12.2 mg RP-HPLC single peak pure blue material (lyophilisate). The identity was proven by MALDI mass spectroscopy [2720.0]. • Enzymes: Upstate Lck (p56^lck, active), Upstate Src (p60^c-src, partially purified) were purchased from UBI. • Time-resolved Fluorescence Assay: Reader: Perkin Elmer, Wallac Viktor 1420-040 multilabel counter; Liquid handling system: Beckman Coulter, Biomek 2000. ATP, Tween 20, HEPES were purchased from Roche Molecular Biochemicals, MgCl2 and MnCl2 were purchased from Merck Eurolab, TCEP was purchased from Pierce, 384 Well low volume fluorescence plates was purchased from Falcon. Assay Description:
(§4) At first the enzyme is pre-incubated for 15 min. at 15° C. in aqueous solution with corresponding amounts of inhibitors according to this invention. Then the phosphorylation reaction is started by adding a reaction mixture, containing ATP, Peptide and PT66, and subsequent shaking. The proceeding of this reaction is immediately monitored using time resolved fluorescence spectroscopy in a suitable well plate reader.
(§5) The IC50-values can be obtained from the reaction rates by using a non-linear curve fit (Excelfit).

Lck (p56^lck, active) = target: T2, Lck (p56^lck, active) (Homo sapiens, UniProt P06239); assay: SRC-Inhibitor-Assay (time-resolved fluorescence), Lck enzyme; type: biochemical; details: ATP 5 μM, peptide 10 μM, enzyme 2.5 U/ml, pre-incubation 15 min at 15° C.
T2 construct: purchased Upstate (UBI)
Method: as §1, §2, §3, §4, §5

T1 sequence (P12931 whole entry, species assumed): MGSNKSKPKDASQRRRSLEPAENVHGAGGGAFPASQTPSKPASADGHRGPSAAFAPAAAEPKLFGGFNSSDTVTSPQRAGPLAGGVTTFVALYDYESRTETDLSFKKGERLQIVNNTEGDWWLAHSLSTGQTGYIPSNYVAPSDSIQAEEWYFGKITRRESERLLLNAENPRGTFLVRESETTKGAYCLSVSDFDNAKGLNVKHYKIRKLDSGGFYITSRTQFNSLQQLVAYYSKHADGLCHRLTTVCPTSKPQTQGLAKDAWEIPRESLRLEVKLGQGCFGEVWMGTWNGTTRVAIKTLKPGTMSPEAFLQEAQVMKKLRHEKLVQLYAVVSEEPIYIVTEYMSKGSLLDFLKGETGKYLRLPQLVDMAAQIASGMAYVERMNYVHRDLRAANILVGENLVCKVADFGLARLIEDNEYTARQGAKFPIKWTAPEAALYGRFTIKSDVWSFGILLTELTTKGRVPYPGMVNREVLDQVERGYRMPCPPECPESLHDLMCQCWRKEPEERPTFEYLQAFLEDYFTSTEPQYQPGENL
T2 sequence (P06239 whole entry, species assumed): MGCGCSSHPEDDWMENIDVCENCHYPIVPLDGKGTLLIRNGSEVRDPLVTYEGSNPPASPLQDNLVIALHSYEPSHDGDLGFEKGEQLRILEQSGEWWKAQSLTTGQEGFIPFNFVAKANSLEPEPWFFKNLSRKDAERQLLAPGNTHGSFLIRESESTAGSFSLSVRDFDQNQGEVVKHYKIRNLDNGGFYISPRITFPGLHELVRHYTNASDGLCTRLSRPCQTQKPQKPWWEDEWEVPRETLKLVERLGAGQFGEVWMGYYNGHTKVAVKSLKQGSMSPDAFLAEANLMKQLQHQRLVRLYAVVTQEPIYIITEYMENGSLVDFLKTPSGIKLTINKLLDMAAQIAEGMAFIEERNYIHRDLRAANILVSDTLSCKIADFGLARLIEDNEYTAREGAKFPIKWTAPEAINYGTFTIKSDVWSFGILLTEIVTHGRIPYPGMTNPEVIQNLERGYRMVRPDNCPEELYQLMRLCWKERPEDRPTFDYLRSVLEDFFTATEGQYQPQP

## O=C(NC1CCNCC1)c1nc2nc(Nc3ccc(N4CCOCC4)cc3)ncc2cc1-c1ccccc1Br [Example 1, 6-(2-Bromo-phenyl)-2-(4-morpholin-4-yl-phenylamino)-pyrido[2,3-d]pyrimidine-7-carboxylic acid piperidin-4-ylamide]
[1]
  IC50: 10.7 nM
Lck (p56^lck, active)
  IC50: 60.1 nM

## CS(=O)(=O)c1cccc(Nc2ncc3cc(-c4ccccc4Br)c(C#N)nc3n2)c1 [Example 2, 6-(2-Bromo-phenyl)-2-(3-methanesulfonyl-phenylamino)-pyrido[2,3-d]pyrimidine-7-carbonitrile]
[1]
  IC50: 33 nM
Lck (p56^lck, active)
  IC50: 159 nM

## NC(=O)c1nc2nc(Nc3ccc(N4CCOCC4)cc3)ncc2cc1-c1ccccc1Br [Example 3-1, 6-(2-Bromo-phenyl)-2-(4-morpholin-4-yl-phenylamino)-pyrido[2,3-d]pyrimidine-7-carboxylic acid amide]
[1]
  IC50: 3 nM
Lck (p56^lck, active)
  IC50: 23 nM

## CCN(CC)CCOc1ccc(Nc2ncc3cc(-c4ccccc4Br)c(C(N)=O)nc3n2)cc1 [Example 3-2, 6-(2-Bromo-phenyl)-2-[4-(2-diethylamino-ethoxy)-phenylamino]-pyrido[2,3-d]pyrimidine-7-carboxylic acid amide]
[1]
  IC50: 4.4 nM
Lck (p56^lck, active)
  IC50: 12.5 nM

## CSc1cccc(Nc2ncc3cc(-c4ccccc4Br)c(C(N)=O)nc3n2)c1 [Example 3-3, 6-(2-Bromo-phenyl)-2-(3-methylsulfanyl-phenylamino)-pyrido[2,3-d]pyrimidine-7-carboxylic acid amide]
[1]
  IC50: 7.8 nM

## NC(=O)c1nc2nc(Nc3ccc(S(N)(=O)=O)cc3)ncc2cc1-c1ccccc1Br [Example 3-4, 6-(2-Bromo-phenyl)-2-(4-sulfamoyl-phenylamino)-pyrido[2,3-d]pyrimidine-7-carboxylic acid amide]
[1]
  IC50: 6.9 nM
Lck (p56^lck, active)
  IC50: 73.8 nM

## CNS(=O)(=O)Cc1cccc(Nc2ncc3cc(-c4ccccc4Br)c(C(N)=O)nc3n2)c1 [Example 3-5, 6-(2-Bromo-phenyl)-2-(3-methylsulfamoylmethyl-phenylamino)-pyrido[2,3-d]pyrimidine-7-carboxylic acid amide]
[1]
  IC50: 35.7 nM
Lck (p56^lck, active)
  IC50: 110 nM

## NC(=O)c1nc2nc(Nc3cccc(S(=O)(=O)CCO)c3)ncc2cc1-c1ccccc1Br [Example 3-6, 6-(2-Bromo-phenyl)-2-[3-(2-hydroxy-ethanesulfonyl)-phenylamino]-pyrido[2,3-d]pyrimidine-7-carboxylic acid amide]
[1]
  IC50: 22.5 nM
Lck (p56^lck, active)
  IC50: 145 nM

## CS(=O)(=O)c1cccc(Nc2ncc3cc(-c4ccccc4Br)c(C(N)=O)nc3n2)c1 [Example 3-7, 6-(2-Bromo-phenyl)-2-(3-methanesulfonyl-phenylamino)-pyrido[2,3-d]pyrimidine-7-carboxylic acid amide]
[1]
  IC50: 16.6 nM
Lck (p56^lck, active)
  IC50: 113 nM

## CSc1cccc(Nc2ncc3cc(-c4ccccc4Br)c(C(=O)NCCN(C)C)nc3n2)c1 [Example 3-8, 6-(2-Bromo-phenyl)-2-(3-methylsulfanyl-phenylamino)-pyrido[2,3-d]pyrimidine-7-carboxylic acid (2-dimethylamino-ethyl)-amide]
[1]
  IC50: 1.7 nM
Lck (p56^lck, active)
  IC50: 32.3 nM

## CN(C)CCNC(=O)c1nc2nc(Nc3ccc(N4CCOCC4)cc3)ncc2cc1-c1ccccc1Br [Example 3-9, 6-(2-Bromo-phenyl)-2-(4-morpholin-4-yl-phenylamino)-pyrido[2,3-d]pyrimidine-7-carboxylic acid (2-dimethylamino-ethyl)-amide]
[1]
  IC50: 0.9 nM
Lck (p56^lck, active)
  IC50: 12.1 nM

## CCN(CC)CCOc1ccc(Nc2ncc3cc(-c4ccccc4Br)c(C(=O)NCCN(C)C)nc3n2)cc1 [Example 3-10, 6-(2-Bromo-phenyl)-2-[4-(2-diethylamino-ethoxy)-phenylamino]-pyrido[2,3-d]pyrimidine-7-carboxylic acid (2-dimethylamino-ethyl)-amide]
[1]
  IC50: 1.6 nM
Lck (p56^lck, active)
  IC50: 3.7 nM

## O=C(NC1CCNCC1)c1nc2nc(Nc3ccc(F)cc3)ncc2cc1-c1ccccc1Br [Example 3-11, 6-(2-Bromo-phenyl)-2-(4-fluoro-phenylamino)-pyrido[2,3-d]pyrimidine-7-carboxylic acid piperidin-4-ylamide]
[1]
  IC50: 66.1 nM
Lck (p56^lck, active)
  IC50: 774 nM

## CN(C)CCNC(=O)c1nc2nc(Nc3ccc(F)cc3)ncc2cc1-c1ccccc1Br [Example 3-12, 6-(2-Bromo-phenyl)-2-(4-fluoro-phenylamino)-pyrido[2,3-d]pyrimidine-7-carboxylic acid (2-dimethylamino-ethyl)-amide]
[1]
  IC50: 34.1 nM
Lck (p56^lck, active)
  IC50: 350 nM

## COCCNC(=O)c1nc2nc(Nc3ccc(F)cc3)ncc2cc1-c1ccccc1Br [Example 3-13, 6-(2-Bromo-phenyl)-2-(4-fluoro-phenylamino)-pyrido[2,3-d]pyrimidine-7-carboxylic acid (2-methoxy-ethyl)-amide]
[1]
  IC50: 114 nM
Lck (p56^lck, active)
  IC50: 360 nM

## CN(C)CCCNC(=O)c1nc2nc(Nc3ccc(F)cc3)ncc2cc1-c1ccccc1Br [Example 3-14, 6-(2-Bromo-phenyl)-2-(4-fluoro-phenylamino)-pyrido[2,3-d]pyrimidine-7-carboxylic acid (3-dimethylamino-propyl)-amide]
[1]
  IC50: 21.7 nM
Lck (p56^lck, active)
  IC50: 233 nM

## CN(C)CC(C)(C)CNC(=O)c1nc2nc(Nc3ccc(F)cc3)ncc2cc1-c1ccccc1Br [Example 3-15, 6-(2-Bromo-phenyl)-2-(4-fluoro-phenylamino)-pyrido[2,3-d]pyrimidine-7-carboxylic acid (3-dimethylamino-2,2-dimethyl-propyl)-amide]
[1]
  IC50: 41.5 nM
Lck (p56^lck, active)
  IC50: 218 nM

## CC(=O)NCCNC(=O)c1nc2nc(Nc3ccc(F)cc3)ncc2cc1-c1ccccc1Br [Example 3-16, 6-(2-Bromo-phenyl)-2-(4-fluoro-phenylamino)-pyrido[2,3-d]pyrimidine-7-carboxylic acid (2-acetylamino-ethyl)-amide]
[1]
  IC50: 81.4 nM
Lck (p56^lck, active)
  IC50: 189 nM

## CNCCNC(=O)c1nc2nc(Nc3ccc(F)cc3)ncc2cc1-c1ccccc1Br [Example 3-17, 6-(2-Bromo-phenyl)-2-(4-fluoro-phenylamino)-pyrido[2,3-d]pyrimidine-7-carboxylic acid (2-methylamino-ethyl)-amide]
[1]
  IC50: 6.2 nM
Lck (p56^lck, active)
  IC50: 39.8 nM

## NC(=O)NNC(=O)c1nc2nc(Nc3ccc(F)cc3)ncc2cc1-c1ccccc1Br [Example 3-18, 1-[6-(2-Bromo-phenyl)-2-(4-fluoro-phenylamino)-pyrido[2,3-d]pyrimidine-7-carbonyl]semicarbazide]
[1]
  IC50: 24.8 nM
Lck (p56^lck, active)
  IC50: 68.4 nM

## CN(C)CCN(C)C(=O)c1nc2nc(Nc3ccc(F)cc3)ncc2cc1-c1ccccc1Br [Example 3-19, 6-(2-Bromo-phenyl)-2-(4-fluoro-phenylamino)-pyrido[2,3-d]pyrimidine-7-carboxylic acid (2-dimethylamino-ethyl)-methyl-amide]
[1]
  IC50: 200 nM
Lck (p56^lck, active)
  IC50: 357 nM

## NC(=O)CNC(=O)c1nc2nc(Nc3ccc(F)cc3)ncc2cc1-c1ccccc1Br [Example 3-20, 6-(2-Bromo-phenyl)-2-(4-fluoro-phenylamino)-pyrido[2,3-d]pyrimidine-7-carboxylic acid carbamoylmethyl-amide]
[1]
  IC50: 62.4 nM
Lck (p56^lck, active)
  IC50: 289 nM

## CN1CCC(NC(=O)c2nc3nc(Nc4ccc(F)cc4)ncc3cc2-c2ccccc2Br)CC1 [Example 3-21, 6-(2-Bromo-phenyl)-2-(4-fluoro-phenylamino)-pyrido[2,3-d]pyrimidine-7-carboxylic acid (1-methyl-piperidin-4-yl)-amide]
[1]
  IC50: 96.2 nM
Lck (p56^lck, active)
  IC50: 638 nM

## O=C(NCCN1CCOCC1)c1nc2nc(Nc3ccc(F)cc3)ncc2cc1-c1ccccc1Br [Example 3-22, 6-(2-Bromo-phenyl)-2-(4-fluoro-phenylamino)-pyrido[2,3-d]pyrimidine-7-carboxylic acid (2-morpholin-4-yl-ethyl)-amide]
[1]
  IC50: 158 nM
Lck (p56^lck, active)
  IC50: 662 nM
